Numbers after ± are expanded uncertainties.
Assay: xn = mol fraction of the nth substance listed
Settings: Liquid; for viscosity: 100.5 kPa; for mass density: 101 kPa

CCOC(=O)c1ccccc1 [ethyl benzoate] + CCO
Settings	mass density, 288.15 K [kg/m3]	mass density, 298.15 K [kg/m3]	mass density, 308.15 K [kg/m3]	mass density, 318.15 K [kg/m3]	viscosity, 288.15 K [mPa·s]	viscosity, 298.15 K [mPa·s]	viscosity, 308.15 K [mPa·s]	viscosity, 318.15 K [mPa·s]
x1 = 0.05	824.59 ± 0.21	815.81 ± 0.22	806.92 ± 0.23	797.88 ± 0.23	1.342 ± 0.019	1.108 ± 0.017	0.926 ± 0.016	0.778 ± 0.015
x1 = 0.1	851.02 ± 0.2	842.08 ± 0.21	833.03 ± 0.21	823.84 ± 0.22	1.36 ± 0.019	1.123 ± 0.017	0.938 ± 0.016	0.793 ± 0.015
x1 = 0.15	874.07 ± 0.2	865.01 ± 0.2	855.84 ± 0.21	846.52 ± 0.21	1.388 ± 0.019	1.148 ± 0.018	0.959 ± 0.016	0.812 ± 0.015
x1 = 0.2	894.37 ± 0.19	885.22 ± 0.2	875.95 ± 0.2	866.54 ± 0.2	1.425 ± 0.02	1.176 ± 0.018	0.984 ± 0.016	0.833 ± 0.015
x1 = 0.25	912.35 ± 0.19	903.11 ± 0.19	893.77 ± 0.2	884.29 ± 0.2	1.465 ± 0.02	1.208 ± 0.018	1.012 ± 0.017	0.857 ± 0.016
x1 = 0.3	928.37 ± 0.18	919.07 ± 0.19	909.68 ± 0.19	900.15 ± 0.2	1.51 ± 0.02	1.244 ± 0.018	1.042 ± 0.017	0.881 ± 0.016
x1 = 0.35	942.79 ± 0.18	933.45 ± 0.19	924.02 ± 0.19	914.45 ± 0.19	1.557 ± 0.021	1.282 ± 0.018	1.072 ± 0.017	0.908 ± 0.016
x1 = 0.4	955.85 ± 0.18	946.47 ± 0.18	937 ± 0.19	927.41 ± 0.19	1.607 ± 0.021	1.321 ± 0.019	1.105 ± 0.017	0.935 ± 0.016
x1 = 0.45	967.71 ± 0.18	958.3 ± 0.18	948.81 ± 0.18	939.2 ± 0.19	1.661 ± 0.021	1.363 ± 0.019	1.138 ± 0.017	0.964 ± 0.016
x1 = 0.5	978.51 ± 0.18	969.07 ± 0.18	959.57 ± 0.18	949.95 ± 0.19	1.715 ± 0.022	1.405 ± 0.019	1.173 ± 0.018	0.993 ± 0.016
x1 = 0.55	988.43 ± 0.17	978.97 ± 0.17	969.46 ± 0.17	959.84 ± 0.17	1.773 ± 0.022	1.449 ± 0.02	1.209 ± 0.018	1.024 ± 0.017
x1 = 0.6	997.48 ± 0.16	988.07 ± 0.16	978.54 ± 0.16	968.93 ± 0.17	1.833 ± 0.023	1.496 ± 0.02	1.247 ± 0.018	1.055 ± 0.017
x1 = 0.65	1005.91 ± 0.16	996.46 ± 0.15	986.94 ± 0.16	977.35 ± 0.16	1.895 ± 0.023	1.544 ± 0.021	1.286 ± 0.019	1.089 ± 0.017
x1 = 0.7	1013.67 ± 0.16	1004.22 ± 0.15	994.7 ± 0.15	985.12 ± 0.15	1.959 ± 0.024	1.595 ± 0.021	1.326 ± 0.019	1.124 ± 0.017
x1 = 0.75	1020.94 ± 0.16	1011.5 ± 0.15	1002.01 ± 0.15	992.45 ± 0.15	2.028 ± 0.024	1.649 ± 0.021	1.37 ± 0.019	1.159 ± 0.018
x1 = 0.8	1027.63 ± 0.16	1018.2 ± 0.16	1008.72 ± 0.15	999.19 ± 0.15	2.099 ± 0.025	1.705 ± 0.022	1.416 ± 0.02	1.198 ± 0.018
x1 = 0.85	1033.99 ± 0.16	1024.57 ± 0.16	1015.13 ± 0.16	1005.64 ± 0.15	2.178 ± 0.026	1.767 ± 0.022	1.465 ± 0.02	1.241 ± 0.018
x1 = 0.9	1039.87 ± 0.17	1030.48 ± 0.16	1021.06 ± 0.16	1011.62 ± 0.15	2.267 ± 0.027	1.836 ± 0.023	1.521 ± 0.02	1.288 ± 0.019
x1 = 0.95	1045.45 ± 0.17	1036.09 ± 0.17	1026.72 ± 0.16	1017.33 ± 0.16	2.373 ± 0.027	1.917 ± 0.024	1.582 ± 0.021	1.335 ± 0.019
x1 = 1	1050.78 ± 0.17	1041.42 ± 0.17	1032.07 ± 0.17	1022.73 ± 0.16	2.444 ± 0.028	1.971 ± 0.024	1.624 ± 0.021	1.368 ± 0.019

From the NIST ThermoML archive (doi:10.1021/je050389b)
